# Biological target: T1, NK1 receptor (Homo sapiens, UniProt P25103)
# T1 construct: Measurement of NK1 Receptor Mediated Intracellular [Ca^2+]; Mobilization in U251 MG Cells Using FLIPR; endogenous in cells; host or cells: U251 MG cells
# Experiment: NK1 receptor mediated intracellular [Ca2+] mobilization in U251 MG cells using FLIPR
# Assay type: cell-based
# Details: antagonist potency against Substance P (EC80), normalized to 100 nM Aprepitant, read-out: U251MG (FLIPR pIC50) (converted)
# Protocol: Measurement of NK1 Receptor Mediated Intracellular [Ca^2+] Mobilization in U251 MG Cells Using FLIPR
# U251 MG cells were seeded into black walled clear-bottom 384-well plates (Greiner Bio-One GmbH, Frickenhausen, Germany) at a density of 15,000 cells/well in 50 μl culture medium and cultured overnight in a 37° C. 5% CO2 incubator. The cells were then loaded with the calcium sensitive dye Fluo-4 (Invitrogen) at 1 μM in buffer, containing 0.04%
# Pluronic F-127 (Sigma-Aldrich), and 2.5 mM probenecid (Sigma-Aldrich) for 60 min in a humidified atmosphere of 5% CO2. Thereafter, cells were washed three times in washing buffer containing 20 mM HEPES and 2.5 mM probenecid pH 7.3. Serial dilutions of test compounds in assay buffer containing 2% dimethyl sulfoxide (final concentration in the cell plate is 0.5% DMSO) and/or agonist were then automatically pipetted into each test well, and the peak fluorescence intensity was recorded (lex, 488 nm; lem, 540 nm) by the FLIPR instrument (Molecular Devices) for approximately 5 min. To measure antagonist potency, cell plates were first incubated with the test compound and intracellular fluorescence recorded for 5 minutes to check a potential agonist effect of the test compound. Cell plates were quickly removed from the FLIPR instrument and incubated for additional 10 minutes at 37° C. before being moved back to the FLIPR instrument for Substance P (EC80) addition. The response was measured as the peak relative fluorescence change after agonist addition.
# The IC50 value is defined as the molar concentration of a test compound that produces a response midway between the fitted top and the fitted bottom. pIC50=−log IC50
# Formula is listed as follows: Fit(% Effect calculated)=(A+((B−A)/(1+((C/X)^D)))) • A: bottom value • B: top value • C: […] • D: Hill slope coefficient
# Ref: Sullivan E, Tucker E M, and Dale I L. Measurement of [Ca^2+] using the Fluorometric Imaging Plate Reader (FLIPR). Methods Mol Biol 114:125-133, 1999.
# Compounds of the present invention were tested according to example 120.
# T1 sequence (P25103 whole entry): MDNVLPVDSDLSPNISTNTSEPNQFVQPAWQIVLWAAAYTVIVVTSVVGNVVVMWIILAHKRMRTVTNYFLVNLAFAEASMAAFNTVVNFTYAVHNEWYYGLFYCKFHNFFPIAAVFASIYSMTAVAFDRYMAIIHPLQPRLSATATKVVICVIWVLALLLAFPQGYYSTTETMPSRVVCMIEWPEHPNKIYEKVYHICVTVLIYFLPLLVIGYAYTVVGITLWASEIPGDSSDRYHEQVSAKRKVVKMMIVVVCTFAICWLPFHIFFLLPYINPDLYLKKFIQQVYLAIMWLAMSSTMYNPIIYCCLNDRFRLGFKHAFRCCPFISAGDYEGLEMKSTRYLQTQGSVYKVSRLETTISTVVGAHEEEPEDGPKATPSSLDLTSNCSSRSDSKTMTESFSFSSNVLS
row,Structure (SMILES),IC50
1,"Cc1ccccc1C1C2CCC(=O)N2CCCN1C(=O)N(C)Cc1cc(C(F)(F)F)cc(C(F)(F)F)c1 (mixture of isomers) [Compound 7, N-{[3,5-bis(trifluoromethyl)phenyl]methyl}-N-methyl-1-(2-methylphenyl)-7-oxo-octahydro-1H-pyrrolo[1,2-a][1,4]diazepine-2-carboxamide]",1.07 nM
2,"Cc1ccccc1C1C2CCC(=O)N2CCN1C(=O)N(C)Cc1cc(C(F)(F)F)cc(C(F)(F)F)c1 (racemic) [Compound 16, N-{[3,5-bis(trifluoromethyl)phenyl]methyl}-N-methyl-1-(2-methylphenyl)-6-oxo-octahydropyrrolo[1,2-a]piperazine-2-carboxamide]",0.229 nM
3,"Cc1ccccc1C1C2CCCN2CCN1C(=O)N(C)Cc1cc(C(F)(F)F)cc(C(F)(F)F)c1 (racemic) [Compound 24, N-{[3,5-bis(trifluoromethyl)phenyl]methyl}-N-methyl-1-(2-methylphenyl)-octahydropyrrolo[1,2-a]piperazine-2-carboxamide]",1.35 nM
4,"Cc1ccccc1C1C2CC(CCO)C(=O)N2CCN1C(=O)N(C)C(CCO)c1cc(C(F)(F)F)cc(C(F)(F)F)c1 (racemic) [Compound 33, N-{1-[3,5-bis(trifluoromethyl)phenyl]-3-hydroxypropyl}-7-(2-hydroxyethyl)-N-methyl-1-(2-methylphenyl)-6-oxo-octahydropyrrolo[1,2-a]piperazine-2-carboxamide]",0.158 nM
5,"Cc1ccccc1C1C2CC(CCO)(CCO)C(=O)N2CCN1C(=O)N(C)Cc1cc(C(F)(F)F)cc(C(F)(F)F)c1 (racemic) [Compound 42, N-{[3,5-bis(trifluoromethyl)phenyl]methyl}-7,7-bis(2-hydroxyethyl)-N-methyl-1-(2-methylphenyl)-6-oxo-octahydropyrrolo[1,2-a]piperazine-2-carboxamide]",0.0955 nM
6,"Cc1cc(C)cc(CN(C)C(=O)N2CCN3C(=O)CCC3C2c2ccccc2C)c1 (single isomer, unassigned) [Compound 1, N-[(3,5-dimethylphenyl)methyl]-N-methyl-1-(2-methylphenyl)-6-oxo-octahydropyrrolo[1,2-a]piperazine-2-carboxamide]",6.46 nM
7,"Cc1cc(C)cc(CN(C)C(=O)N2CCN3C(=O)CCC3C2c2ccccc2C)c1 (single isomer, unassigned) [Compound 2, N-[(3,5-dimethylphenyl)methyl]-N-methyl-1-(2-methylphenyl)-6-oxo-octahydropyrrolo[1,2-a]piperazine-2-carboxamide]",77.6 nM
8,"Cc1ccccc1C1C2CCC(=O)N2CCN1C(=O)N(C)Cc1cc(F)cc(C(F)(F)F)c1 (single isomer, unassigned) [Compound 4, N-{[3-fluoro-5-(trifluoromethyl)phenyl]methyl}-N-methyl-1-(2-methylphenyl)-6-oxo-octahydropyrrolo[1,2-a]piperazine-2-carboxamide]",81.3 nM
9,"Cc1ccccc1C1C2CCC(=O)N2CCN1C(=O)N(C)Cc1cccc(C(F)(F)F)c1 (single isomer, unassigned) [Compound 5, N-methyl-1-(2-methylphenyl)-6-oxo-N-{[3-(trifluoromethyl)phenyl]methyl}-octahydropyrrolo[1,2-a]piperazine-2-carboxamide]",7.41 nM
10,"Cc1ccccc1C1C2CCC(=O)N2CCN1C(=O)N(C)Cc1cccc(C(F)(F)F)c1 (single isomer, unassigned) [Compound 6, N-methyl-1-(2-methylphenyl)-6-oxo-N-{[3-(trifluoromethyl)phenyl]methyl}-Octahydropyrrolo[1,2-a]piperazine-2-carboxamide]",> 100 nM
11,"Cc1ccccc1[C@@H]1[C@H]2CCC(=O)N2CCN1C(=O)N(C)[C@H](C)c1cc(C(F)(F)F)cc(C(F)(F)F)c1 (single isomer, unassigned) [Compound 10]",12.9 nM

# Reference: patent publication US9181259B2 (LEO PHARMA A/S, priority 2012, dated 2015)
